How the values were obtained:
[1] = target: T1, Inhibitor of nuclear factor kappa-B kinase subunit beta (Homo sapiens, UniProt O14920); assay: Inhibition of IKK-beta by TR-FRET assay
T1 sequence (O14920 whole entry): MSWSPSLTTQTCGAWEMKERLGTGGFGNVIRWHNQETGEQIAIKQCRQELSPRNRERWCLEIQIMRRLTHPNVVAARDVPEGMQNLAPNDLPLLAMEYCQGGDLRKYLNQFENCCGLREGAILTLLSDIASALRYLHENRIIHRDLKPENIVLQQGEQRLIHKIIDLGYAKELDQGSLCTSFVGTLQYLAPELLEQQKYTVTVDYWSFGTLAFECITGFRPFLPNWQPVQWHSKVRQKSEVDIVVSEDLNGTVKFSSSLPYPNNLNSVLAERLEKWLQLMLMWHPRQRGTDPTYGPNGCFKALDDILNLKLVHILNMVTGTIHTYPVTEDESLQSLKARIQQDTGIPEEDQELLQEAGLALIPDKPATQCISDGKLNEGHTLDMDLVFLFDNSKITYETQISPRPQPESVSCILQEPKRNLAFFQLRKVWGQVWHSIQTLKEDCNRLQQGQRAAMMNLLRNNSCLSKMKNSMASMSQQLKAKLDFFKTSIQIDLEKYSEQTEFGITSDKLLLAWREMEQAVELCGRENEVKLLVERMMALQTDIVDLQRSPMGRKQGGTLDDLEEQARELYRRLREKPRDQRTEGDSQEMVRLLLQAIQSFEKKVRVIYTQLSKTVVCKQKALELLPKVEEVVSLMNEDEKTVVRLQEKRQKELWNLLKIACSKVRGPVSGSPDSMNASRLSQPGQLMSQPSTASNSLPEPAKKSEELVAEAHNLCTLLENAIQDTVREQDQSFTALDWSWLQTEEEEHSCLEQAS

[2] = target: T2, Inhibitor of nuclear factor kappa-B kinase subunit beta (Homo sapiens) (UniProt O14920); assay: Inhibition of IKK-beta at 10 uM by TR-FRET assay
T2 sequence (whole entry): T1 sequence (O14920 whole entry)

SMILES	IC50 [1]	inhibition [2]
N#Cc1c(C2CCCNC2)cc(-c2ccccc2O)nc1N (stereo not drawn)	0.174 µM	
Cc1cc(N2CCC(O)CC2)nc2sc(C(N)=O)c(N)c12	< 1 µM	
COc1cc(/C=N/NC(=O)Cc2nnc(NC(=O)c3ccc([N+](=O)[O-])cc3)s2)ccc1O	6.98 µM	76.4%
CC1=NN(c2ccc(S(N)(=O)=O)cc2)C(=O)/C1=C/c1ccc(-c2ccc3c(c2)C(=O)NC3=O)o1	6.7 µM	84.8%
COc1ccc(C(=O)Nc2nnc(CC(=O)N/N=C/c3ccc(O)c(OC)c3)s2)cc1	10.8 µM	53.1%
